Assay results taken from US5219741A, “Method of making L-proline using an N-acyl-L-protine acylase” (priority 1990, dated 1993).
“Also recorded” adds a separate entry of the source. Where two headings read alike, the source gives them in different places.

Experiments:
N-acyl-L-proline acylase [1] = assay: Substrate specificity: hydrolysis of N-acyl amino acids and proline derivatives; type: biochemical, Comamonas testosteroni DSM 5416
N-acyl-L-proline acylase [2] = assay: Stereospecificity of hydrolysis of N-acetyl-D,L-proline; type: biochemical, Comamonas testosteroni DSM 5416
Method: The hydrolysis of N-acyl-L-proline, N-acetyl-D,L-proline and N-acetyl-D-proline was determined in the following reaction mixture:
The reaction mixture was incubated for two hours at 30° C. and the L-proline produced was determined by amino acid analysis as in Example 10.

N-acyl-L-proline acylase [3] = assay: Dependence of the acylase activity on the substrate concentration (KM); type: biochemical, Comamonas testosteroni DSM 5416; settings: 30° C., 0.1M tris-HCl buffer, pH 7.0
Method: The reaction temperature was 30° C. and the incubation time 10 minutes. The N-acetyl-L-proline concentration of the reaction batch was varied in a range from 1 to 50 mM.

[4] = system: Comamonas testosteroni DSM 5416; assay: Growth of the strain in culture medium (OD600); type: cell-based
Method: Strains which appeared uniform according to the colony morphology and the microscopic image were then cultivated in 100 ml liquid medium (500 ml Erlenmeyer flask with top and 4 lateral baffles) at 30° C. on a rotary agitator machine at 200 rpms. The culture medium had the following composition: […]
(§1) The carbon source of the culture medium with a concentration of 4 g/l was varied and the influence on growth and acylase formation determined.
(§2) The concentration of N-acetyl-L-proline was varied in a range of 1 g/l-5 g/l in steps of 1 g/l in the culture medium as described in Example 1.
(§3) The concentration of (NH4)2 SO4 was varied in a range of 1 g/l-5 g/l in steps of 1 g/l in the culture medium as described in Example 1.
(§4) The concentration of yeast extract was varied in a range of 1 g/l-5 g/l in steps of 1 g/l in the culture medium as described in Example 1.
(§5) The N-acetyl-L-proline concentration was reduced to 0.2 to 1.0 g/l in the culture medium as described in Example 1 and 4 g/l Na acetate were additionally added.
(§6) The method described above under f) was followed. However, the inductor, N-acetyl-L-proline, was not added to the nutrient medium until the late exponential growth phase after an incubation time of 12 hours.
(§7) The method described above under f) was followed. In addition to N-acetyl-L-proline, various N-acetyl- and N-chloroacetyl amino acids were added to the nutrient medium in a concentration of 1 g/l.

[5] = system: N-acyl-L-proline acylase formation in Comamonas testosteroni DSM 5416; assay: Acylase formation: specific activity of N-acyl-L-proline acylase in crude extract; type: cell-based
Method: After 24 to 48 hours, the cell-containing nutrient medium was centrifuged (15 min., 4,500 g in a cooling centrifuge), the cells were washed twice with 0.9% (w/v) NaCl solution and resuspended in 10 ml 0.1M tris-HCl buffer, pH 7.0.
The microorganisms of this suspension were macerated by ultrasound treatment (Sonifier-Cell Disrupter B-30 of the firm Branson Sonic Power Co., Danbury, Conn., USA) (2 minutes pulsating, corresponding to 1 minute of pure ultrasonic radiation. The cell fragments and non-macerated cells were centrifuged in a cooled centrifuge 30 minutes at 40,000 g and 5° C. The clear supernatant (=crude extract) was used in an enzyme test.
The reaction was started by adding crude extract and the reaction batches customarily incubated for 10 minutes at 30° C. The incubation time and the amount of crude extract were selected so that the linearity range of the enzymatic reaction and of the subsequent proline detection were not exceeded.
The enzymatic reaction was interrupted by pipetting 50 μl of the enzyme sample into 1.25 ml 100% acetic acid. Subsequently, 0.45 ml 0.1M tris-HCl buffer pH 7.0 and 1.25 ml ninhydrin reagent (3 g ninhydrin dissolved by heating in a mixture of 60 ml 100% acetic acid and 40 ml 6M phosphoric acid) were added. The ninhydrin reagent was freshly prepared daily. The test tubes were loosely closed with screw-on caps, incubated 30 minutes at 100° C. and subsequently cooled down in an ice bath.
The L-proline, liberated by the enzymatic hydrolysis, forms a red dye with ninhydrin at 100° C. The absorption of the red dye was measured in a spectrophotometer at 480 nm relative to a control batch without crude extract (=substrate blank). The concentration of the L-proline produced was determined using a straight calibration line with L-proline in a range of 5 to 100 nmoles per 50 μl specimen. The enzyme activity was indicated in international units; thus, one unit (U) corresponded to an amount of 1 μmole L-proline produced per minute.
The protein determination was carried out with a protein-determination kit of the firm Pierce Chemical Co., Rockford, Ill., USA, according to Bradford, Anal. Biochem. 72, pp. 248-254 (1976).
as §1, §2, §3, §4, §5, §6, §7

[6] = N-acetyl-L-proline 0.2 g/l + 4 g/l Na acetate, 34 hours
[7] = N-acetyl-L-proline 0.2 g/l added after 12 hours (late exponential growth phase), Na acetate medium, 24 hours further
[8] = N-acetyl-L-proline 0.4 g/l + 4 g/l Na acetate, 34 hours
[9] = N-acetyl-L-proline 0.4 g/l added after 12 hours (late exponential growth phase), Na acetate medium, 24 hours further
[10] = N-acetyl-L-proline 0.6 g/l + 4 g/l Na acetate, 34 hours
[11] = N-acetyl-L-proline 0.6 g/l added after 12 hours (late exponential growth phase), Na acetate medium, 24 hours further
[12] = N-acetyl-L-proline 0.8 g/l + 4 g/l Na acetate, 34 hours
[13] = N-acetyl-L-proline 0.8 g/l added after 12 hours (late exponential growth phase), Na acetate medium, 24 hours further
[14] = N-acetyl-L-proline 1.0 g/l + 4 g/l Na acetate, 34 hours
[15] = N-acetyl-L-proline 1.0 g/l added after 12 hours (late exponential growth phase), Na acetate medium, 24 hours further
[16] = N-acetyl-L-proline 1 g/l in culture medium, 24 hours
[17] = N-acetyl-L-proline 2 g/l in culture medium, 24 hours
[18] = N-acetyl-L-proline 3 g/l in culture medium, 24 hours
[19] = N-acetyl-L-proline 4 g/l in culture medium, 24 hours
[20] = N-acetyl-L-proline 5 g/l in culture medium, 24 hours
[21] = carbon source 4 g/l in culture medium
[22] = inductor 1 g/l + 4 g/l Na acetate, 24 hours

Structure (SMILES): CC(=O)N1CCC[C@H]1C(=O)O [N-acetyl-L-proline]
- Hydrolysis by the acylase (in words) (N-acyl-L-proline acylase [1]): hydrolyzed especially well
- Rel. activity (%) (N-acyl-L-proline acylase [1]; 20 mM substrate 1.0 ml in 2.0 ml batch, 30° C., pH 7.0, N-acetyl-L-proline = 100%, amino-acid analyzer): 100%
- Hydrolysis by the acylase (in words) (N-acyl-L-proline acylase [1]; listed as N-acetyl-L proline): hydrolyzes
- Relative Activity (%) (N-acyl-L-proline acylase [1]; proline derivatives, 30° C., pH 7.0, N-acetyl-L-proline = 100%): 100%
- Stereospecific hydrolysis (in words) (N-acyl-L-proline acylase [2]): hydrolyzes
- L-proline (mmol/l) produced (N-acyl-L-proline acylase [2]; substrate 10 mmol/l, two hours at 30° C., pH 7.0): 10.25 mmol/L
- Km (N-acyl-L-proline acylase [3]): 5 mM
- Growth (OD600) [4, 6]: 2.27 OD600
- Growth (OD600) [4, 7]: 2.22 OD600
- Growth (OD600) [4, 8]: 2.90 OD600
- Growth (OD600) [4, 9]: 2.28 OD600
- Growth (OD600) [4, 10]: 2.75 OD600
- Growth (OD600) [4, 11]: 2.76 OD600
- Growth (OD600) [4, 12]: 3.04 OD600
- Growth (OD600) [4, 13]: 2.95 OD600
- Growth (OD600) [4, 14]: 3.12 OD600
- Growth (OD600) [4, 15]: 2.88 OD600
- Growth (OD600) [4, 16]: 1.95 OD600
- Growth (OD600) [4, 17]: 3.16 OD600
- Growth (OD600) [4, 18]: 4.32 OD600
- Growth (OD600) [4, 19]: 5.42 OD600
- Growth (OD600) [4, 20]: 5.68 OD600
- Growth (OD600) [4, 21]: 6.0 OD600
- Growth (OD600) [4, 22]: 3.46 OD600
- Acylase formation / induction (in words) [5]: only formed; also recorded: induced acylase formation
- Optimum concentration in the culture medium for acylase formation [5]: 4 g/L
- Spec. activity (U/mg) [5, 6]: 0.53 U/mg
- Spec. activity (U/mg) [5, 7]: 0.50 U/mg
- Spec. activity (U/mg) [5, 8]: 0.79 U/mg
- Spec. activity (U/mg) [5, 9]: 0.63 U/mg
- Spec. activity (U/mg) [5, 10]: 1.41 U/mg
- Spec. activity (U/mg) [5, 11]: 0.96 U/mg
- Spec. activity (U/mg) [5, 12]: 1.70 U/mg
- Spec. activity (U/mg) [5, 13]: 0.67 U/mg
- Spec. activity (U/mg) [5, 14]: 1.55 U/mg
- Spec. activity (U/mg) [5, 15]: 1.08 U/mg
- Spec. activity (U/mg) [5, 16]: 1.33 U/mg
- Spec. activity (U/mg) [5, 17]: 1.36 U/mg
- Spec. activity (U/mg) [5, 18]: 1.77 U/mg
- Spec. activity (U/mg) [5, 19]: 1.84 U/mg
- Spec. activity (U/mg) [5, 20]: 0.94 U/mg
- Spec. activity (U/mg) [5, 21]: 2.26 U/mg
- Spec. activity (U/mg) [5, 22]: 1.34 U/mg
